Experimental data from patent US20230013669A1, “Antibacterial Treatment Using a Cannabinoid and an Active Agent” (priority 2019, published 2023).
“And” between values parts separate entries of the source, which are not always exact repeats. Identical values can stand only once.

Test system: Acinetobacter baumannii ATCC 19606 (GN_034)
Test: Synergy of cannabidiol with cell-wall disrupting agent (CBD MIC in combination, FICI)
Assay type: cell-based
Protocol: The compounds were stored short term at 4° C.
Analysis was performed using Microsoft Excel.

[1] = CBD with Colistin, Acinetobacter baumannii ATCC 19606
[2] = CBD with MCC_6442, Acinetobacter baumannii ATCC 19606

In the case of `C=C(C)C1CCC(C)=CC1c1c(O)cc(CCCCC)cc1O` (centres unmarked) [Cannabidiol, 2-[3-methyl-6-(1-methylethenyl)-2-cyclohexen-1-yl]-5-pentyl-1,3-benzenediol], the FICI (CBD with Aztreonam at 8 μg/mL, CBD MIC taken as 256 μg/mL) is reported as 0.375, the FICI (CBD with Aztreonam at 16 μg/mL, CBD MIC taken as 256 μg/mL) is reported as 0.5 and the FICI range (CBD with Aztreonam, all tested concentrations (Table 74)) is reported as 0.25-1.06. It also gave an FICI (CBD with Cefepime at 0.25 μg/mL, CBD MIC taken as 256 μg/mL) of 1.016, an FICI (CBD with Cefepime at 0.5 μg/mL, CBD MIC taken as 256 μg/mL) of 1.031 and an FICI (CBD with Cefepime at 1 μg/mL, CBD MIC taken as 256 μg/mL) of 1.0625. It also gave an FICI (CBD with Cefepime at 2 μg/mL, CBD MIC taken as 256 μg/mL) of 1.125, an FICI (CBD with Cefepime at 4 μg/mL, CBD MIC taken as 256 μg/mL) of 0.375 and an FICI (CBD with Cefepime at 8 μg/mL, CBD MIC taken as 256 μg/mL) of 0.5625. The FICI range (CBD with Cefepime, Synergy table (Table 81)) was 0.38, the FICI range (CBD with Cefepime, all tested concentrations (Table 79)) was 0.38-1.13 and the FICI (CBD with Cefotetan at 4 μg/mL, CBD MIC taken as 256 μg/mL) was 1.016. It also gave an FICI (CBD with Cefotetan at 8 μg/mL, CBD MIC taken as 256 μg/mL) of 1.031, an FICI (CBD with Cefotetan at 16 μg/mL, CBD MIC taken as 256 μg/mL) of 1.0625 and an FICI (CBD with Cefotetan at 32 μg/mL, CBD MIC taken as 256 μg/mL) of 1.125. For the same molecule, the FICI (CBD with Cefotetan at 64 μg/mL, CBD MIC taken as 256 μg/mL) was 1.25, the FICI (CBD with Cefotetan at 128 μg/mL, CBD MIC taken as 256 μg/mL) was 1.5 and the “FICI range (MIC table)” value (CBD with Cefotetan, Acinetobacter baumannii ATCC 19606) was 1.02-1.5. It also gave an FICI (CBD with Ceftazidime at 0.5 μg/mL, Acinetobacter baumannii ATCC 19606) of 1.125, an FICI (CBD with Ceftazidime at 1 μg/mL, Acinetobacter baumannii ATCC 19606) of 1.25 and an FICI (CBD with Ceftazidime at 2 μg/mL, Acinetobacter baumannii ATCC 19606) of 1.5. For the same molecule, the FICI (CBD with Ceftazidime at 4 μg/mL, Acinetobacter baumannii ATCC 19606) was 1.125, the FICI (CBD with Ceftazidime at 8 μg/mL, Acinetobacter baumannii ATCC 19606) was 2.0625 and the FICI (CBD with Ceftazidime at 16 μg/mL, Acinetobacter baumannii ATCC 19606) was 4. The “FICI range (MIC table)” value (CBD with Ceftazidime, Acinetobacter baumannii ATCC 19606) was 1.13-4, the FICI (CBD with Cefuroxime at 4 μg/mL, Acinetobacter baumannii ATCC 19606) was 1.0625 and the FICI (CBD with Cefuroxime at 8 μg/mL, Acinetobacter baumannii ATCC 19606) was 1.125. The FICI (CBD with Cefuroxime at 16 μg/mL, Acinetobacter baumannii ATCC 19606) was 0.375, the FICI (CBD with Cefuroxime at 32 μg/mL, Acinetobacter baumannii ATCC 19606, listed as CBD) was 0.5625 and 0.625 and the FICI (CBD with Cefuroxime at 64 μg/mL, Acinetobacter baumannii ATCC 19606) was 1. The FICI (CBD with Cefuroxime at 128 μg/mL, Acinetobacter baumannii ATCC 19606) was 2, the “FICI range (Synergy table)” value (CBD with Cefuroxime, Acinetobacter baumannii ATCC 19606) was 0.38 and the FICI (CBD with Colistin at 0.031 μg/mL, Acinetobacter baumannii ATCC 19606) was 0.04662. The FICI (CBD with Colistin at 0.062 μg/mL, Acinetobacter baumannii ATCC 19606) was 0.06981, the FICI (CBD with Colistin at 0.5 μg/mL, Acinetobacter baumannii ATCC 19606, listed as CBD) was 0.501 and 0.5039 and the FICI (CBD with Colistin at 1 μg/mL, Acinetobacter baumannii ATCC 19606) was 1. The “FICI range (MIC table)” value [1] was 0.05-1, the “FICI range (Synergy table)” value [1] was 0.05-0.5 and the “FICI range (MIC table)” value [2] was 0.07-1.02. The “FICI range (Synergy table)” value [2] was 0.09-1.13, the FICI (CBD with MCC_6442 at 0.5 μg/mL, Acinetobacter baumannii ATCC 19606) was 1.016 and the FICI (CBD with MCC_6442 at 1 μg/mL, Acinetobacter baumannii ATCC 19606) was 0.09375. The FICI (CBD with MCC_6442 at 2 μg/mL, Acinetobacter baumannii ATCC 19606) was 0.06641, the FICI (CBD with MCC_6442 at 4 μg/mL, Acinetobacter baumannii ATCC 19606) was 0.127 and the FICI range (CBD with Octapeptin C4, Synergy table (Table 85), listed as CBD) was 0.28-0.5 and 0.19-0.5. The FICI range (CBD with Octapeptin C4, all tested concentrations (Table 83), listed as CBD) was 0.28-1.13 and 0.19-1.06, the FICI (CBD with Octapeptin C4 at 0.25 μg/mL, CBD MIC taken as 256 μg/mL) was 1.031 and the FICI (CBD with Octapeptin C4 at 0.25 μg/mL, CBD MIC taken as 256 μg/mL, listed as cannabidiol) was 1.016. The FICI (CBD with Octapeptin C4 at 0.5 μg/mL, CBD MIC taken as 256 μg/mL) was 1.0625 and 1.031, the FICI (CBD with Octapeptin C4 at 1 μg/mL, CBD MIC taken as 256 μg/mL) was 1.125 and 1.0625 and the FICI (CBD with Octapeptin C4 at 2 μg/mL, CBD MIC taken as 256 μg/mL) was 0.2812 and 0.1875. The FICI (CBD with Octapeptin C4 at 4 μg/mL, CBD MIC taken as 256 μg/mL) was 0.5078 and 0.2578 and the FICI (CBD with Octapeptin C4 at […], CBD MIC taken as 256 μg/mL) was 1.016.
